The text below walks through data of patent US8575186B2, “Epiminocycloalkyl[b] indole derivatives as serotonin sub-type 6 (5-HT6) modulators and uses thereof” (Albany Molecular Research, Inc., priority 2009, dated 2013).

For one data set, the target named is human 5-HT6 receptor (Homo sapiens (Human), UniProt P50406). Briefly: radioligand binding assay (SPA format), [N-methyl-3H]-LSD. The note with it: read-out: human 5HT6 Ki, human 5-HT6 receptor membranes, 10 nM [3H]-LSD.
The next data set deals with 5HT6 receptor (Rattus norvegicus (Rat), UniProt P31388). In words: ex vivo receptor occupancy measurements. The format is in vivo. The following applies: oral dosing at 30 mg/kg, Sprague-Dawley rats. As for the experimental part: This table illustrates representative compounds tested for 5HT6 affinity in the human binding assay. […] Example 158 had 42% occupancy of the 5HT6 receptor after oral dosing at 30 mg/kg using ex vivo receptor occupancy measurements in Sprague-Dawley rats.
Chain of 5HT6 receptor (P31388 whole entry): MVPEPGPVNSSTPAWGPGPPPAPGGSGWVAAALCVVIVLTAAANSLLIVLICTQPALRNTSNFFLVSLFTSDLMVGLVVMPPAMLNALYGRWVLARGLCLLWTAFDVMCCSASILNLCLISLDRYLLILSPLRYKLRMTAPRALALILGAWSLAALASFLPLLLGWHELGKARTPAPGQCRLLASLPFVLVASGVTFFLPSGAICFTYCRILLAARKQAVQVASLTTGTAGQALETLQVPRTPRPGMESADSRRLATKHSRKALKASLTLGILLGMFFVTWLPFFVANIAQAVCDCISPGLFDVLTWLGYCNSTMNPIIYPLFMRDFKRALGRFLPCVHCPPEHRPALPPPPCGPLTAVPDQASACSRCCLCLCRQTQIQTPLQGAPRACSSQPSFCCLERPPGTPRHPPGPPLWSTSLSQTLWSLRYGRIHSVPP

Read-outs that look alike come from different tables or passages of the source.

Chain of human 5-HT6 receptor (P50406 whole entry): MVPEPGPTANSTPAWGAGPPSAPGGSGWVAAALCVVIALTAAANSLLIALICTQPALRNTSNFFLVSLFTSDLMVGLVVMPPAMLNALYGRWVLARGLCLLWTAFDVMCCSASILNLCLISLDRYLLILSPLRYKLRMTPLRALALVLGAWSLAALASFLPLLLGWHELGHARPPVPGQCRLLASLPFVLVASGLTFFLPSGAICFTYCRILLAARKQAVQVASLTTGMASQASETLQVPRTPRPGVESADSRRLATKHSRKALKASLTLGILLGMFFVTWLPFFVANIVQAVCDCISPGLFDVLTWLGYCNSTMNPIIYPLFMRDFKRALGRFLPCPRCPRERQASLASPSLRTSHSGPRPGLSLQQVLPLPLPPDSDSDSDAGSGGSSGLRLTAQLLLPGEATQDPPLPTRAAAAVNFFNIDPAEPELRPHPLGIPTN

Consider `Cl.Cn1c2c(c3cc(S(=O)(=O)c4cccnc4)ccc31)C1CCC(C2)N1` (stereo not drawn) [Example 61, 2-(3-Pyridine)sulfonyl-5-methyl-5,6,7,8,9,10-hexahydro-7,10-epiminocyclohepta[b]indole hydrochloride], for which the melting point lay in the range of 226 to 228 °C. Moreover, the Ki at human 5-HT6 receptor was 156 nM.

For the compound `Cc1cc(S(=O)(=O)c2cccc(C(F)(F)F)c2)cc2c3c(n(C)c12)CC1CCC3N1.Cl` (stereo not drawn) [Example 75, 2-(3-Trifluoromethyl-phenyl)sulfonyl-4,5-dimethyl-5,6,7,8,9,10-hexahydro-7,10-epiminocyclohepta[b]indole hydrochloride], the melting point is 227 to 229 °C. Besides, the inhibition constant Ki at human 5-HT6 receptor was 3.6 nM.

In turn, `Cl.Cn1c2c(c3cc(S(=O)(=O)c4cccc5ccccc45)ccc31)C1CCC(C2)N1` (stereo not drawn) [Example 49, 2-(1-Napthyl)sulfonyl-5-methyl-5,6,7,8,9,10-hexahydro-7,10-epiminocyclohepta[b]indole hydrochloride] showed a melting point of 229 to 231 °C. Also, the Ki on human 5-HT6 receptor is 1.4 nM.

As to `Cl.O=S(=O)(c1ccccc1)c1ccc2c(c1)c1c(n2CCO)CC2CCC1N2` (stereo not drawn) [Example 89, 2-Phenylsulfonyl-5-(2-hydroxy)ethyl-5,6,7,8,9,10-hexahydro-7,10-epiminocyclohepta[b]indole hydrochloride], the melting point was 185 to 190 °C. Besides, the Ki at human 5-HT6 receptor amounted to 432 nM.

The compound `Cl.Cn1c2c(c3cc(S(=O)(=O)c4ccc(O)cc4)ccc31)C1CCC(C2)N1` (stereo not drawn) [Example 32, 2-(4-Hydroxyphenyl)sulfonyl-5-methyl-5,6,7,8,9,10-hexahydro-7,10-epiminocyclohepta[b]indole hydrochloride] registered a melting point of 210 to 212 °C. Further, the Ki at human 5-HT6 receptor amounted to 11 nM.

In the case of `CN1C2CCC1c1c(n(C)c3ccc(S(=O)(=O)c4ccsc4)cc13)C2.Cl` (stereo not drawn) [Example 70, 2-(3-thienyl)sulfonyl-5-methyl-5,6,7,8,9,10-hexahydro-7,10-N-methyl-epiminocyclohepta[b]indole hydrochloride], the melting point lay in the range of 238 to 240 °C. The inhibitory constant (Ki) on human 5-HT6 receptor was found to be 8.2 nM.

`Cn1c2c(c3cc(S(=O)(=O)c4cccc(Cl)c4)ccc31)C1CCC(C2)N1` (stereo not drawn) [Example 158] came in with a receptor occupancy at 30 mg/kg at 5HT6 receptor of 42%. For the same compound, on human 5-HT6 receptor, the Ki is 1.9 nM.

Turning to `Cl.Cn1c2c(c3cc(S(=O)(=O)c4cncc(F)c4)ccc31)C1CCC(C2)N1` (stereo not drawn) [Example 59, 2-[3-(5-Fluoro)-pyridine]sulfonyl-5-methyl-5,6,7,8,9,10-hexahydro-7,10-epiminocyclohepta[b]indole hydrochloride], the melting point fell in the range of 212 to 215 °C. The inhibitory constant (Ki) on human 5-HT6 receptor turned out to be 139 nM.

Take `Cl.Cn1c2c(c3cc(S(=O)(=O)c4ccccc4)cc(Cl)c31)C1CCC(C2)N1` (stereo not drawn) [Example 82, 2-Phenylsulfonyl-4-chloro-5-methyl-5,6,7,8,9,10-hexahydro-7,10-epiminocyclohepta[b]indole hydrochloride]: the melting point was 258 to 264 °C (dec.). Also, the Ki at human 5-HT6 receptor came out at 22 nM.

`Cc1cc(S(=O)(=O)c2ccc(N)cc2)cc2c3c(n(C)c12)CC1CCC3N1.Cl` (stereo not drawn) [Example 77, 2-(4-Amino-phenyl)sulfonyl-4,5-dimethyl-5,6,7,8,9,10-hexahydro-7,10-epiminocyclohepta[b]indole hydrochloride] had a melting point of 244 to 246 °C. For the same compound, on human 5-HT6 receptor, the Ki was 4.9 nM.

Take `Cl.Cn1c2c(c3cc(S(=O)(=O)c4ccc(F)cc4)ccc31)C1CCC(C2)N1` (stereo not drawn) [Example 28, 2-(4-Fluorophenyl)sulfonyl-5-methyl-5,6,7,8,9,10-hexahydro-7,10-epiminocyclohepta[b]indole hydrochloride]: the melting point was in the range of 210 to 214 °C. The Ki at human 5-HT6 receptor stood at 60 nM.

The compound `Cl.Cn1c2c(c3cc(S(=O)(=O)c4ccc(C#N)cc4)ccc31)C1CCC(C2)N1` (stereo not drawn) [Example 30, 2-(4-Cyanophenyl)sulfonyl-5-methyl-5,6,7,8,9,10-hexahydro-7,10-epiminocyclohepta[b]indole hydrochloride] gave a melting point of 216 to 218 °C. Further, on human 5-HT6 receptor (hydrochloride), the Ki turned out to be 410 nM.

For `Cl.Cn1c2c(c3cc(S(=O)(=O)c4cccc(F)c4)ccc31)C1CCC(C2)N1` (stereo not drawn) [Example 35, 2-(3-Fluorophenyl)sulfonyl-5-methyl-5,6,7,8,9,10-hexahydro-7,10-epiminocyclohepta[b]indole hydrochloride], the melting point lay within 240 to 245 °C. Also, the Ki on human 5-HT6 receptor is 4.2 nM.

Consider `CC(C)Nc1cccc(S(=O)(=O)c2ccc3c(c2)c2c(n3C)CC3CCC2N3)c1.Cl` (stereo not drawn) [Example 47, 2-[(3-N-Isopropylamino)phenyl]sulfonyl-5-methyl-5,6,7,8,9,10-hexahydro-7,10-epiminocyclohepta[b]indole hydrochloride], for which the melting point was 208 to 212 °C (dec.). The Ki at human 5-HT6 receptor stood at 11 nM.

`Cl.Cn1c2c(c3cc(S(=O)(=O)c4cccc(N)c4)ccc31)C1CCC(C2)N1` (stereo not drawn) [Example 44, 2-(3-Aminophenyl)sulfonyl-5-methyl-5,6,7,8,9,10-hexahydro-7,10-epiminocyclohepta[b]indole hydrochloride] registered a melting point of 220 to 222 °C. Besides, on human 5-HT6 receptor, the inhibition constant Ki worked out at 6.3 nM.
